In patent EP0125052B1, “Dopaminergic carbostyrils and a process for preparing them” (SMITHKLINE BECKMAN CORPORATION, priority 1983, dated 1984):

Key:
[1] = system: spontaneously hypertensive rat (SHR); assay: spontaneously hypertensive rat (SHR) protocol; assay type: in vivo
anesthetized dog = anesthetized dog protocol (renal dog screen) measuring renal and cardiovascular parameters; assay type: in vivo; set-up: decreased heart rate / arterial blood pressure: dose or concentration left out as unconfirmed
Text: The prior art dopaminergic agent, dopamine, is used as a positive control.

D2 = D2 (Oryctolagus cuniculus, UniProt G1T1Q0); assay: cell-based
D2, sequence (G1T1Q0 1-443): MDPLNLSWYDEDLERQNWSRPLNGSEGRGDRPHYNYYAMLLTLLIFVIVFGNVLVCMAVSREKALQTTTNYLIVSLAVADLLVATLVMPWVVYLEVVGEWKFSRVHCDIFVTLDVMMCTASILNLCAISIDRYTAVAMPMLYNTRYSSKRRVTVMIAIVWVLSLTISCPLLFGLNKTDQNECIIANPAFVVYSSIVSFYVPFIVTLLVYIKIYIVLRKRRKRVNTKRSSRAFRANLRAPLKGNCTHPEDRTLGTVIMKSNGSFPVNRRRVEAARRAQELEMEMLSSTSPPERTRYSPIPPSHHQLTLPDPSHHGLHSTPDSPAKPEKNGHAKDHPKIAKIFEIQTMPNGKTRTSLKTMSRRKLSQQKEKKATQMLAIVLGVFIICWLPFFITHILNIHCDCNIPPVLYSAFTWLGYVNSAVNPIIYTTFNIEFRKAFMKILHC

Cl.NCCc1ccc(O)c2[nH]c(=O)ccc12 [5-aminoethyl-8-hydroxycarbostyril hydrochloride]
systolic blood pressure ([1]; SHR, 25 mg/kg intraperitoneally administered): lowered systolic blood pressure
ED15 (anesthetized dog; Canis lupus familiaris, read-out: RVR-ED15): 1.8 µg/kg
arterial blood pressure (anesthetized dog; by infusion, renal dog screen): -8%
decreased heart rate (anesthetized dog; by infusion, renal dog screen): 22.5%

CCCN(CCC)CCc1ccc(O)c2[nH]c(=O)ccc12 [5-di-n-propylaminoethyl-8-hydroxycarbostyril]
systolic hypertension ([1]; rat test, 12.5, 25 and 50 mg/kg, i.p.): decreased systolic hypertension
renal blood flow (anesthetized dog; dog protocol, 3 and 30 pg/kg/min infusion): increased renal blood flow

CCCN(CCc1ccc(O)cc1)CCc1ccc(O)c2[nH]c(=O)ccc12 [5-[N-n-propyl-N-(p-hydroxyphenethyl)aminoethyl)-8-hydroxycarbostyril]
EC50 (D2): 12 nM
